Key:
[1] = target: A. eutrophus PHA synthase (Cupriavidus necator, UniProt P23608); conditions: read-out: apparent Km value (substrate concentration at half-optimal velocity); enzyme concentration constant at 0.95 mg/ml; 40 or 200 μl assay volumes; estimated from FIG. 10
Streptococcus pyogenes = experiment: Antibiotic activity by filter paper disc on agar plates; type: cell-based; conditions: for inhibition zone around disc (antibiotic activity against Streptococcus pyogenes): 20 μL of 1.6 mM sample in MeOH on sterilized filter paper disc, Mueller-Hinton agar plates, overnight at 37° C.; for activity against Streptococcus pyogenes: purified compounds, S. pyogenes grown on Mueller-Hinton agar plates
Description: The antibiotic activity of a compound of formula (13) and (14) against Streptococcus pyogenes was examined by separately applying 20 μL of each sample (1.6 mM in MeOH) to sterilized filter paper discs which were placed onto the surface of S. pyogenes grown on Mueller-Hinton agar plates (Mangahas, 1996).

[2] = target: the molecule itself; experiment: size exclusion chromatography, native MW (about 100-160 kDa and about 50-80 kDa forms)
[3] = Storage stability of purified PHA synthase (activity remaining); type: physicochemical
Source text: PHA synthase purified from insect cells appears to be relatively stable.

Molecule | inhibition zone around disc (antibiotic activity against Streptococcus pyogenes) (Streptococcus pyogenes) | activity against Streptococcus pyogenes (Streptococcus pyogenes) | other results
3-hydroxybutyrate CoA [HBCoA] | – | – | Km [1]: 2.5 mM
CC[C@H]1OC(=O)[C@H](C)[C@@H](O[C@@H]2O[C@H](C)C[C@H](N(C)C)[C@H]2O)[C@@H](C)C[C@@H](C)C(=O)/C=C/[C@]1(C)O [compound of formula (1), methymycin] | clearly visible inhibition zones | clearly visible inhibition zones | –
C[C@@H]1C[C@H](N(C)C)[C@@H](O)[C@H](O[C@H]2[C@@H](C)C[C@@H](C)C(=O)/C=C/[C@@H](C)[C@@H]([C@@H](C)O)OC(=O)[C@@H]2C)O1 [compound of formula (2), neomethymycin] | clearly visible inhibition zones | clearly visible inhibition zones | –
CCC1OC(=O)C(C)C(OC2OC(C)CC(N(C)C)C2O[C@@H]2O[C@H](CO)[C@@H](O)[C@H](O)[C@H]2O)C(C)CC(C)C(=O)C=CC1(C)O (stereo partly drawn) [compound of formula (13), C-2′β-glucosylated methymycin] | no such clearings were discernible | – | –
A. eutrophus PHA synthase (phbC gene product), produced in insect cells with a baculovirus vector (enzyme, The 64 kDa band; On the blots it was denatured (SDS-PAGE); The N-terminus is heterogeneous (starts at A7 or S10); also called PHB synthase; intact PHB synthase (band a)) AAASTQEGKSQPFKVTPGPFDPATWLEWSRQWQGTEGNGHAAASGIPGLDALAGVKIAPAQLGDIQQRYMKDFSALWQAMAEGKAEATGPLHDRRFAGDAWRTNLPYRFAAAFYLLNARALTELADAVEADAKTRQRIRFAISQWVDAMSPANFLATNPEAQRLLIESGGESLRAGVRNMMEDLTRGKISQTDESAFEVGRNVAVTEGAVVFENEYFQLLQYKPLTDKVHARPLLMVPPCINKYYILDLQPESSLVRHVVEQGHTVFLVSWRNPDASMAGSTWDDYIEHAAIRAIEVARDISGQDKINVLGFCVGGTIVSTALAVLAARGEHPAASVTLLTTLLDFADTGILDVFVDEGHVQLREATLGGGAGAPCALLRGLELANTFSFLRPNDLVWNYVVDNYLKGNTPVPFDLLFWNGDATNLPGPWYCWYLRHTYLQNELKVPGKLTVCGVPVDLASIDVPTYIYGSREDHIVPWTAAYASTALLANKLRFVLGASGHIAGVINPPAKNKRSHWTNDALPESPQQWLAGAIEHHGSWWPDWTAWLAGQAGAKRAAPANYGNARYRAIEPAPGRYVKAKA | – | – | binding result [2]: binds; synthase activity remained after storage ([3]; after 7 weeks stored at −20° C. in the presence of 50% glycerol): approximately 75%; synthase activity remained after storage ([3]; after 7 weeks stored in liquid N2): approximately 50%

Source: patent US20030194784A1, “DNA encoding methymycin and pikromycin” (priority 2001, published 2003)
